Converted amounts (≈) assume the structure as drawn. Where two headings read alike, the source gives them in different places.
How the values were obtained:
NorA [1] = target: T1, NorA (Staphylococcus aureus, UniProt P0A0J7); assay type: cell-based; conditions: FIG. 8; reserpine 20 μg/ml, INF 55, 240, 271, 392 5 μg/ml, INF 277 10 μg/ml
T1 construct: expressed in transfected cells; host or cells: Bacillus subtilis strain NA
Protocol: Effect of the lead inhibitors on ethidium efflux from NA cells. NA cells were loaded with ethidium in the presence of reserpine and allowed to efflux in the absence of reserpine (A) in the presence of 20 μg/ml reserpine (B), 5 μg/ml of INF 55 (C), 5 μg/ml of INF 240 (D), 5 μg/ml of INF 271 (E), 5 μg/ml of INF 392 (F), or 10 μg/ml of INF 277 (G). Fluorescence intensity is proportional to the amount of ethidium remaining inside the cells.
NA cells overexpressing NorA were loaded with ethidium bromide in the presence of reserpine (20 μg/ml). After washing, cells were placed in a fluorimeter cuvette with fresh medium.

[2] = test system: wild type S. aureus SA1199; assay type: cell-based; conditions: INF inhibitors 5 μg/ml, reserpine 20 μg/ml; for Fold inhibition of emergence of resistance: ciprofloxacin resistance, SA1199
Protocol: The effect of the inhibitors on the rate of emergence of in vitro selected single-step ciprofloxacin resistant mutants of wild type S. aureus SA1199 (Kaatz et al., 1990) was determined.
Ciprofloxacin resistance in first step in vitro selected mutants of S. aureus is predominantly due to specific point mutations in the targets of this drug, topoisomerase IV and gyrase (Cambau and Gutman, 1993; Ferrero et al., 1994).

[3] = test system: NorA-overexpressing S. aureus, SA1199B; test: Frequency of emergence of SA1199B mutants insensitive to the NorA inhibitor (adaptation of NorA); assay type: cell-based; conditions: mutagenized SA1199B, ethidium bromide 10 μg/ml, INF inhibitors 5 μg/ml, reserpine 20 μg/ml, 48 h
Protocol: To evaluate the possibility of such mutations arising in the NorA transporter the inventors determined the frequency of emergence of mutants of NorA-overexpressing S. aureus, SA1199B, that retained resistance to a NorA substrate in spite of the presence of a NorA inhibitor. […] After a 48 h incubation period the number of colonies on each plate was determined.

S. aureus (SA1199B) = test: Minimal inhibitor concentration decreasing the ciprofloxacin MIC two fold, S. aureus SA1199B; assay type: cell-based; conditions: Staphylococcus aureus, read-out: Effectivity IC50* S. Aureus
S. pneumoniae (SPC2A) = test: Minimal inhibitor concentration decreasing the ciprofloxacin MIC two fold, S. pneumoniae SPC2A; assay type: cell-based; conditions: Streptococcus pneumoniae; SPC2A; minimal concentration required to decrease the MIC for ciprofloxacin by two fold; N.A. = not active at 5 μg/ml; read-out: IC50 S. Pneumoniae
NorA [4] = target: T1, NorA; conditions: reference for CoMFA predictions; cited from earlier work
[5] = test system: first step mutants of S. pneumoniae (ATCC 49619); conditions: three first step mutants, non-toxic concentration
Bmr = Bmr (Bacillus subtilis, UniProt P33449); conditions: cited from earlier work
NorA [6] = target: T1, NorA; conditions: cited from earlier work
B. subtilis = conditions: inhibition of the Bmr transporter; cited from earlier work
wild-type S. aureus = conditions: cited from earlier work
S. pneumoniae = conditions: cited from earlier work
E. faecalis = conditions: cited from earlier work
[7] = S. pneumoniae strain EBR, non-toxic concentrations

T1 sequence (P0A0J7 whole entry): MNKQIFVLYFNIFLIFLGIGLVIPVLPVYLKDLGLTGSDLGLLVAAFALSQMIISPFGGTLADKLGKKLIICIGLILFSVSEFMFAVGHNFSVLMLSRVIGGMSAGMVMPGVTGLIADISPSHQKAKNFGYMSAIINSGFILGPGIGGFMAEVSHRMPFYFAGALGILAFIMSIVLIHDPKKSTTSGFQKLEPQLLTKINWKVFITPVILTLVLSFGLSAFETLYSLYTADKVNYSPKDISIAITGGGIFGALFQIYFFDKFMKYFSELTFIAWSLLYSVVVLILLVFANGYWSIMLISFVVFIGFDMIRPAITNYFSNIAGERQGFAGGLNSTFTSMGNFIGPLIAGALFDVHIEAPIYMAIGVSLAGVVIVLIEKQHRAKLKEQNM
Bmr, sequence (P33449 whole entry): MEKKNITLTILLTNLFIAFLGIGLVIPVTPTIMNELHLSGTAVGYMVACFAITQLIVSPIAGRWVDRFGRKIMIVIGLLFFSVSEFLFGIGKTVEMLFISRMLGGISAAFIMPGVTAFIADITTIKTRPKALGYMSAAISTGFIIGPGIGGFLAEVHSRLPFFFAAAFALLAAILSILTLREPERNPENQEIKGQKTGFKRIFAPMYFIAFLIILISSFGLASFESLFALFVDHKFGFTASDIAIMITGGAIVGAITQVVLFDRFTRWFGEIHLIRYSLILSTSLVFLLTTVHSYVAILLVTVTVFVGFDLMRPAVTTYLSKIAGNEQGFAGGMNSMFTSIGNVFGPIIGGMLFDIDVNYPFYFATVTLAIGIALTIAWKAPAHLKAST

COC(=O)[C@H]1[C@H]2C[C@@H]3c4[nH]c5cc(OC)ccc5c4CCN3C[C@H]2C[C@@H](OC(=O)c2cc(OC)c(OC)c(OC)c2)[C@@H]1OC [Reserpine, reserpine]
inhibition of the decrease in fluorescence due to NorA-mediated ethidium efflux (NorA [1]): dramatically inhibited
Frequency of emergence of variants resistant to two fold the MIC of ciprofloxacin, Spontaneous ([2]; SA1199, ciprofloxacin 1 μg/ml, 48 h): <5 × 10^−11
Frequency of emergence of variants resistant to two fold the MIC of ciprofloxacin, Mutagenized ([2]; SA1199 mutagenized with ethylmethane sulfonate): <2.5 × 10^−10
Fold inhibition of emergence of resistance [2]: >50
Fold inhibition of emergence of resistance ([2]; listed as reserpine): more than one order of magnitude
Frequency of adaptation of NorA (mutants insensitive to the inhibitor) [3]: approximately 2×10^−8
IC50 (S. aureus (SA1199B)): 6.25 µg/mL (≈ 10.3 µM)
IC50 (S. pneumoniae (SPC2A)): 5 µg/mL (≈ 8.21 µM)
concentration at which known to be active (NorA [4]): 5 µg/mL
reversal of resistance to ciprofloxacin and ethidium bromide [5]: reversed the resistance
inhibition of drug efflux mediated by Bmr (Bmr): completely inhibited
inhibition of drug efflux mediated by NorA (NorA [6]): completely inhibited
reduction of the MIC of norfloxacin (B. subtilis): by a factor of five
reduction of the MIC of norfloxacin (wild-type S. aureus): at least four-fold
inhibition of ethidium efflux (S. pneumoniae; [7]): inhibited ethidium efflux
reversal of resistance to ethidium and fluoroquinolones (S. pneumoniae; [7]): reversed the resistance
potentiation of susceptibility to ethidium and fluoroquinolones (S. pneumoniae; wild type S. pneumoniae): two to three fold
factor of reduction of the MIC of norfloxacin and ciprofloxacin (S. pneumoniae; wild-type S. pneumoniae): 2-3
increase in susceptibility to fluoroquinolones (E. faecalis): two-fold increase

— patent US20030125337A1, “Inhibitors of multidrug transporters” (priority 1998, published 2003)
